One series deals with LeTx (Bacillus anthracis, UniProt P13423). The settings on record: raw 264.7 cells.
Series [1] deals with T1, α-HL (Staphylococcus aureus, UniProt P09616).
Series [2] addresses T1, α-HL. It counts as biochemical. The settings on record: read-out: Inhibition of trans-membrane conductance IC50.
In a further series the target is ε-toxin (Clostridium perfringens, UniProt Q02307).
The conditions of series [3]: rat, in vivo; cited from earlier work.

Where two headings read alike, the source gives them in different places. Where only a bound is given, the exact number is not on record here.

Usually IC50 stands for the midpoint of a concentration-inhibition curve.

T1 sequence (P09616 27-319 limits assumed): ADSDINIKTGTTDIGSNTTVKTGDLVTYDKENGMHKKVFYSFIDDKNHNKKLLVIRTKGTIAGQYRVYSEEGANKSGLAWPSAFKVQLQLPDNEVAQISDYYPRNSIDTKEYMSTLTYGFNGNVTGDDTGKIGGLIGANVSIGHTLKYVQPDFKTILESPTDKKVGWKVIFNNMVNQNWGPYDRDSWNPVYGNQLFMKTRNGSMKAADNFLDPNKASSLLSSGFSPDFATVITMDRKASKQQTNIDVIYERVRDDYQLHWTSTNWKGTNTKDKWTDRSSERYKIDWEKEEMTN
Chain of ε-toxin (Q02307 46-306 limits assumed): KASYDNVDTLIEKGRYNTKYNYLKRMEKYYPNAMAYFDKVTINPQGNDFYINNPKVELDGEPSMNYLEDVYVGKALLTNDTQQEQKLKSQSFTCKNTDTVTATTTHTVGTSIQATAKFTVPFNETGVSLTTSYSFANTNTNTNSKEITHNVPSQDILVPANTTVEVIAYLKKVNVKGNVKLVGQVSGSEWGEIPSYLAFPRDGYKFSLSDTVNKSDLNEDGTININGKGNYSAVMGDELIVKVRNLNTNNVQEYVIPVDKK
Chain of LeTx (P13423 197-764 limits assumed): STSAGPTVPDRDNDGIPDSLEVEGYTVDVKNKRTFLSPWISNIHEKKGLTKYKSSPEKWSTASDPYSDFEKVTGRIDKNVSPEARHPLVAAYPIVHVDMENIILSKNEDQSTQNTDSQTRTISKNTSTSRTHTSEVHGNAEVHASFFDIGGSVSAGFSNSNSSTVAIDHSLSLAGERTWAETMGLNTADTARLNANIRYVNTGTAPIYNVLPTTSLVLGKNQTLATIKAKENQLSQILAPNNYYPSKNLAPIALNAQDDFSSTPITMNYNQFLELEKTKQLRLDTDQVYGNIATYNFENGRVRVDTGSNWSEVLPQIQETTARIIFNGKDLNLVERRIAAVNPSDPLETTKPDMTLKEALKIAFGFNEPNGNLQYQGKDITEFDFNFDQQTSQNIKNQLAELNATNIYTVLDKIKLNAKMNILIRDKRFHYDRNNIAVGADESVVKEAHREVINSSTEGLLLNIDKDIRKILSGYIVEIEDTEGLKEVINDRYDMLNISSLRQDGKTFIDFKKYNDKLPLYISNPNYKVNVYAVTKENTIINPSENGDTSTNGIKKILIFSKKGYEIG

`Cc1ccc(CNC[C@H]2O[C@@H]3O[C@H]4[C@H](O)[C@@H](O)[C@@H](O[C@H]5[C@H](O)[C@@H](O)[C@@H](O[C@H]6[C@H](O)[C@@H](O)[C@@H](O[C@H]7[C@H](O)[C@@H](O)[C@@H](O[C@H]8[C@H](O)[C@@H](O)[C@@H](O[C@H]9[C@H](O)[C@@H](O)[C@@H](O[C@H]2[C@H](O)[C@H]3O)O[C@@H]9CNCc2ccc(C)cc2)O[C@@H]8CNCc2ccc(C)cc2)O[C@@H]7CNCc2ccc(C)cc2)O[C@@H]6CNCc2ccc(C)cc2)O[C@@H]5CNCc2ccc(C)cc2)O[C@@H]4CNCc2ccc(C)cc2)cc1` [Compound 8] gave an IC50 against LeTx of 0.5 ± 0.2 µM.
Same read-out and setting: with `O[C@@H]1[C@@H](O)[C@H]2O[C@H]3[C@H](O)[C@@H](O)[C@@H](O[C@H]4[C@H](O)[C@@H](O)[C@@H](O[C@H]5[C@H](O)[C@@H](O)[C@@H](O[C@H]6[C@H](O)[C@@H](O)[C@@H](O[C@H]7[C@H](O)[C@@H](O)[C@@H](O[C@H]8[C@H](O)[C@@H](O)[C@@H](O[C@@H]1[C@@H](CNCc1ccc(Cl)cc1)O2)O[C@@H]8CNCc1ccc(Cl)cc1)O[C@@H]7CNCc1ccc(Cl)cc1)O[C@@H]6CNCc1ccc(Cl)cc1)O[C@@H]5CNCc1ccc(Cl)cc1)O[C@@H]4CNCc1ccc(Cl)cc1)O[C@@H]3CNCc1ccc(Cl)cc1` [Compound 9] the figure was 5.4 ± 0.8 µM.
In the case of `O[C@@H]1[C@@H](O)[C@H]2O[C@H]3[C@H](O)[C@@H](O)[C@@H](O[C@H]4[C@H](O)[C@@H](O)[C@@H](O[C@H]5[C@H](O)[C@@H](O)[C@@H](O[C@H]6[C@H](O)[C@@H](O)[C@@H](O[C@H]7[C@H](O)[C@@H](O)[C@@H](O[C@H]8[C@H](O)[C@@H](O)[C@@H](O[C@@H]1[C@@H](CNCc1ccc(Br)cc1)O2)O[C@@H]8CNCc1ccc(Br)cc1)O[C@@H]7CNCc1ccc(Br)cc1)O[C@@H]6CNCc1ccc(Br)cc1)O[C@@H]5CNCc1ccc(Br)cc1)O[C@@H]4CNCc1ccc(Br)cc1)O[C@@H]3CNCc1ccc(Br)cc1` [Compound 10], the “Inhibition of α-HL hemolytic activity (in words)” value on α-HL [1] is on record as “did not display any activity”. In addition, at α-HL [1] (erythrocytes), the IC50 is more than 100 µM.
For the molecule `CC(C)(C)OC(=O)NC(CCCN)C(=O)NCC1OC2OC3C(CNC(=O)C(CCCN)NC(=O)OC(C)(C)C)OC(OC4C(CNC(=O)C(CCCN)NC(=O)OC(C)(C)C)OC(OC5C(CNC(=O)C(CCCN)NC(=O)OC(C)(C)C)OC(OC6C(CNC(=O)C(CCCN)NC(=O)OC(C)(C)C)OC(OC7C(CNC(=O)C(CCCN)NC(=O)OC(C)(C)C)OC(OC8C(CNC(=O)C(CCCN)NC(=O)OC(C)(C)C)OC(OC1C(O)C2O)C(O)C8O)C(O)C7O)C(O)C6O)C(O)C5O)C(O)C4O)C(O)C3O` (stereo not shown) [Compound 11], on α-HL [2], the IC50 is approximately 0.05 µM. Also, on α-HL [1], the midpoint of inhibition, the IC50, lay at 3.3 µM and the “Inhibition of α-HL hemolytic activity (in words)” value is listed as “inhibits α-HL”.
`CC(C)(C)OC(=O)NC(CCCN)C(=O)NCC1OC2OC3C(CNC(=O)C(CCCN)NC(=O)OC(C)(C)C)OC(OC4C(CNC(=O)C(CCCN)NC(=O)OC(C)(C)C)OC(OC5C(CNC(=O)C(CCCN)NC(=O)OC(C)(C)C)OC(OC6C(CNC(=O)C(CCCN)NC(=O)OC(C)(C)C)OC(OC7C(CNC(=O)C(CCCN)NC(=O)OC(C)(C)C)OC(OC8C(CNC(=O)C(CCCN)NC(=O)OC(C)(C)C)OC(OC9C(CNC(=O)C(CCCN)NC(=O)OC(C)(C)C)OC(OC1C(O)C2O)C(O)C9O)C(O)C8O)C(O)C7O)C(O)C6O)C(O)C5O)C(O)C4O)C(O)C3O` (stereo not shown) [Compound 12]: the IC50 against α-HL [1] was more than 100 µM.
Regarding `Cc1ccc(CNCC2OC3OC4C(CNCc5ccc(C)cc5)OC(OC5C(CNCc6ccc(C)cc6)OC(OC6C(CNCc7ccc(C)cc7)OC(OC7C(CNCc8ccc(C)cc8)OC(OC8C(CNCc9ccc(C)cc9)OC(OC9C(CNCc%10ccc(C)cc%10)OC(OC2C(O)C3O)C(O)C9O)C(O)C8O)C(O)C7O)C(O)C6O)C(O)C5O)C(O)C4O)cc1` (stereo not shown) [Compound 5105], at ε-toxin, the IC50 amounted to 20 ± 10 µM and the “Inhibition of ε-toxin cytotoxicity / protection of MDCK cells (in words)” value is reported as “protection”.
`OC1C2OC(CNCc3ccc(Cl)cc3)C(OC3OC(CNCc4ccc(Cl)cc4)C(OC4OC(CNCc5ccc(Cl)cc5)C(OC5OC(CNCc6ccc(Cl)cc6)C(OC6OC(CNCc7ccc(Cl)cc7)C(OC7OC(CNCc8ccc(Cl)cc8)C(OC8OC(CNCc9ccc(Cl)cc9)C(O2)C(O)C8O)C(O)C7O)C(O)C6O)C(O)C5O)C(O)C4O)C(O)C3O)C1O` (stereo not shown) [Compound 5130] gave a 50% inhibitory concentration (IC50) against ε-toxin of 21 ± 9 µM.
For `OC1C2OC(CNCc3ccc(Br)cc3)C(OC3OC(CNCc4ccc(Br)cc4)C(OC4OC(CNCc5ccc(Br)cc5)C(OC5OC(CNCc6ccc(Br)cc6)C(OC6OC(CNCc7ccc(Br)cc7)C(OC7OC(CNCc8ccc(Br)cc8)C(OC8OC(CNCc9ccc(Br)cc9)C(O2)C(O)C8O)C(O)C7O)C(O)C6O)C(O)C5O)C(O)C4O)C(O)C3O)C1O` (stereo not shown) [Compound 5137], on ε-toxin, the IC50 stood at 20 ± 1 µM.
In the case of β-cyclodextrin [β-CD], in series [3], the Bioavailability is 0.1-4%.

Values taken from patent US20120277184A1 (priority 2004, published 2012).
